Assay results taken from US11033539B2, “Compounds of formulas (VII), (VIII), (IX), (XI), (XII), (XIII), and (XIV) as muscarinic receptor 4(M4) antagonists for treating neurological diseases” (Neurocrine Biosciences, Inc., priority 2015, dated 2021).
Like-named read-outs stand apart in the source and are kept apart here.

Biological target: human M4 receptor (Homo sapiens (Human), UniProt P08173)
Assay: Radioligand (tritiated N-methylscopolamine) binding assay, M4
Method in brief: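 Membranes came from recombinant CHO cells expressing human muscarinic subtypes and were incubated with compound and [3H]NMS (1.5 nM) in HEPES/NaCl/MgCl2/EDTA buffer, pH 7.4, at 37° C for 90 min. Twelve-point dose-response (printed 10–[…]). Filter-bound radioactivity was counted and Ki values derived.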

[1] = Ki against the M4 receptor, membranes from CHO cells expressing human M4, tritiated N-methylscopolamine 1.5 nM, read-out: Ki

human M4 receptor, sequence (P08173 whole entry): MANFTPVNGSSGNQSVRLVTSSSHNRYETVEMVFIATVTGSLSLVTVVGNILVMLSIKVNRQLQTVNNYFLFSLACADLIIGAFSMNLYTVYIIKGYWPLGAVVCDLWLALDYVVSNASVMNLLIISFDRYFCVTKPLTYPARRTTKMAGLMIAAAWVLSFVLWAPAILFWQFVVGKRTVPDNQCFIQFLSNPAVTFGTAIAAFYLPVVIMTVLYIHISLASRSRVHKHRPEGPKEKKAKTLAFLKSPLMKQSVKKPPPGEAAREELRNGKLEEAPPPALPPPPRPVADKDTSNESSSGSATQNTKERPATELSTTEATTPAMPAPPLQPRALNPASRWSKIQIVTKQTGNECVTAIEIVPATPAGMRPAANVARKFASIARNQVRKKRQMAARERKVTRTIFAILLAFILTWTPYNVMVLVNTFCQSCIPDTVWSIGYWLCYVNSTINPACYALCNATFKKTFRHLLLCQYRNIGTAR

| Structure (SMILES) | Ki [1] [µM] | Ki [µM] |
| --- | --- | --- |
| O=C(NCCC1CCN(Cc2ccccc2)CC1)N1CCN(c2cccc(O)c2)CC1 [8-28, N-[2-(1-benzylpiperidin-4-yl)ethyl]-4-(3-hydroxyphenyl)piperazine-1-carboxamide] | 0.1 to 1 | – |
| O=C(NCCC1CCN(Cc2ccccc2)CC1)N1CCN(c2ncccn2)CC1 [8-29, N-[2-(1-benzylpiperidin-4-yl)ethyl]-4-(pyrimidin-2-yl)piperazine-1-carboxamide] | 0.1 to 1 | – |
| O=C(NCCC1CCN(Cc2ccccc2)CC1)N1CCC(c2c[nH]c3ccccc23)CC1 [8-30, N-[2-(1-benzylpiperidin-4-yl)ethyl]-4-(1H-indol-3-yl)piperidine-1-carboxamide] | 0.1 to 1 | – |
| CC(C)c1noc(C2CCN(C(=O)NCCC3CCN(Cc4ccccc4)CC3)CC2)n1 [8-31, N-[2-(1-benzylpiperidin-4-yl)ethyl]-4-[3-(propan-2-yl)-1,2,4-oxadiazol-5-yl]piperidine-1-carboxamide] | 0.1 to 1 | – |
| O=C(NCCC1CCN(Cc2ccccc2)CC1)N1CCC(c2ccccc2F)CC1 [8-32, N-[2-(1-benzylpiperidin-4-yl)ethyl]-4-(2-fluorophenyl)piperidine-1-carboxamide] | 0.1 to 1 | – |
| N#CC1(c2ccccc2)CCN(C(=O)NCCC2CCN(Cc3ccccc3)CC2)CC1 [8-33, N-[2-(1-benzylpiperidin-4-yl)ethyl]-4-cyano-4-phenylpiperidine-1-carboxamide] | – | 0.1 to 1 |
| O=C(NCCC1CCN(Cc2ccccc2)CC1)N1CCN(c2ccccc2F)CC1 [8-34, N-[2-(1-benzylpiperidin-4-yl)ethyl]-4-(2-fluorophenyl)piperazine-1-carboxamide] | 0.1 to 1 | – |
| O=C(NCCC1CCN(Cc2ccccc2)CC1)N1CCN(c2ccc(F)cc2)CC1 [8-35, N-[2-(1-benzylpiperidin-4-yl)ethyl]-4-(4-fluorophenyl)piperazine-1-carboxamide] | 0.1 to 1 | – |
| CC(=O)c1ccc(N2CCN(C(=O)NCCC3CCN(Cc4ccccc4)CC3)CC2)cc1 [8-36, 4-(4-acetylphenyl)-N-[2-(1-benzylpiperidin-4-yl)ethyl]piperazine-1-carboxamide] | 0.1 to 1 | – |
| CCN1CCN(C2CCN(C(=O)NCCC3CCN(Cc4ccccc4)CC3)CC2)CC1 [8-37, N-[2-(1-benzylpiperidin-4-yl)ethyl]-4-(4-ethylpiperazin-1-yl)piperidine-1-carboxamide] | 0.1 to 1 | – |
| O=C(NCCC1CCN(Cc2ccccc2)CC1)N1CCC(c2ccccc2)CC1 [8-38, N-[2-(1-benzylpiperidin-4-yl)ethyl]-4-phenylpiperidine-1-carboxamide] | 0.1 to 1 | – |
| O=C(NCCC1CCN(Cc2ccccc2)CC1)NC1CCN(c2ccc(F)cc2)CC1 [8-39, 1-[2-(1-benzylpiperidin-4-yl)ethyl]-3-[1-(4-fluorophenyl)piperidin-4-yl]urea] | 0.1 to 1 | – |
| N#Cc1cccc(N2CCC(NC(=O)NCCC3CCN(Cc4ccccc4)CC3)CC2)c1 [8-40, 3-[2-(1-benzylpiperidin-4-yl)ethyl]-1-[1-(3-cyanophenyl)piperidin-4-yl]urea] | 0.1 to 1 | – |
| O=C(NCCC1CCN(Cc2ccccc2)CC1)Nc1ccc(Oc2ccccc2)cc1 [8-41, 3-[2-(1-benzylpiperidin-4-yl)ethyl]-1-(4-phenoxyphenyl)urea] | 0.1 to 1 | – |
| COc1ccccc1C1(O)CCN(C(=O)NCCC2CCN(Cc3ccccc3)CC2)CC1 [8-42, N-[2-(1-benzylpiperidin-4-yl)ethyl]-4-hydroxy-4-(2-methoxyphenyl)piperidine-1-carboxamide] | 0.1 to 1 | – |
| Cc1ccc(N2CCN(C(=O)NCCC3CCN(Cc4ccccc4)CC3)CC2)c(CO)c1 [8-43, N-[2-(1-benzylpiperidin-4-yl)ethyl]-4-[2-(hydroxymethyl)-4-methylphenyl]piperazine-1-carboxamide] | 0.1 to 1 | – |
| O=C(NCCC1CCN(Cc2ccccc2)CC1)N1CCC(N2Cc3ccccc3NC2=O)CC1 [8-44, N-[2-(1-benzylpiperidin-4-yl)ethyl]-4-(2-oxo-1,2,3,4-tetrahydroquinazolin-3-yl)piperidine-1-carboxamide] | 0.1 to 1 | – |
| N#Cc1ccc(N2CCN(C(=O)NCCC3CCN(Cc4ccccc4)CC3)CC2)nc1 [8-45, N-[2-(1-benzylpiperidin-4-yl)ethyl]-4-(5-cyanopyridin-2-yl)piperazine-1-carboxamide] | 0.1 to 1 | – |
| O=C(NCCC1CCN(Cc2ccccc2)CC1)N1CCC(n2nnc3ccccc32)CC1 [8-46, 4-(1H-1,2,3-benzotriazol-1-yl)-N-[2-(1-benzylpiperidin-4-yl)ethyl]piperidine-1-carboxamide] | 0.1 to 1 | – |
| O=C(NCCC1CCN(Cc2ccccc2)CC1)N1CCN(c2ncccc2Cl)CC1 [8-47, N-[2-(1-benzylpiperidin-4-yl)ethyl]-4-(3-chloropyridin-2-yl)piperazine-1-carboxamide] | 0.1 to 1 | – |
| O=C(c1ccc(-c2ccccc2)cc1)N(C1CC1)C1CCN(Cc2ccccc2)CC1 [9-2, N-(1-benzylpiperidin-4-yl)-N-cyclopropyl-4-phenylbenzamide] | 0.1 to 1 | – |
| O=C(C1CCN(c2ccc(OC(F)(F)F)cc2)CC1)N(CCO)CCC1CCN(Cc2ccccc2)CC1 [9-3, N-[2-(1-benzylpiperidin-4-yl)ethyl]-N-(2-hydroxyethyl)-1-[4-(trifluoromethoxy)phenyl]piperidine-4-carboxamide] | 0.1 to 1 | – |
| Cc1nc(-c2ccc(Cl)cc2)sc1C(=O)NCCC1CCN(Cc2ccccc2)CC1 [9-4, N-[2-(1-benzylpiperidin-4-yl)ethyl]-2-(4-chlorophenyl)-4-methyl-1,3-thiazole-5-carboxamide] | 0.1 to 1 | – |
| O=C(NCCC1(CO)CCN(Cc2ccccc2)CC1)C1CCN(c2cccc(OC(F)(F)F)c2)CC1 [9-11, N-{2-[1-benzyl-4-(hydroxymethyl)piperidin-4-yl]ethyl}-1-[3-(trifluoromethoxy)phenyl]piperidine-4-carboxamide] | 0.01 to 0.1 | – |
| O=C(NCCC1CCN(Cc2ccccc2)CC1)c1ccc(-c2ccc(Cl)cc2)cc1F [9-12, N-[2-(1-benzylpiperidin-4-yl)ethyl]-4-(4-chlorophenyl)-2-fluorobenzamide] | 0.01 to 0.1 | – |
| O=C(NCCC1(CO)CCN(Cc2ccccc2)CC1)C1CCN(c2ccc(OC(F)(F)F)cc2)CC1 [9-13, N-{2-[1-benzyl-4-(hydroxymethyl)piperidin-4-yl]ethyl}-1-[4-(trifluoromethoxy)phenyl]piperidine-4-carboxamide] | 0.01 to 0.1 | – |
| COC(=O)c1ccc(-c2ccc(C(=O)NCCC3CCN(Cc4ccccc4)CC3)cc2)cc1 [9-14, methyl 4-(4-{[2-(1-benzylpiperidin-4-yl)ethyl]carbamoyl}phenyl)benzoate] | 0.01 to 0.1 | – |
| N#Cc1cc(N2CCC(C(=O)NC[C@H](O)C3CCN(Cc4ccccc4)CC3)CC2)ccc1F [9-15, N-[(2R)-2-(1-benzylpiperidin-4-yl)-2-hydroxyethyl]-1-(3-cyano-4-fluorophenyl)piperidine-4-carboxamide] | 0.01 to 0.1 | – |
| O=C(NCCC1CCN(Cc2ccccc2)CC1)c1ccc(-c2ccc(C(F)(F)F)cc2)cc1 [9-16, N-[2-(1-benzylpiperidin-4-yl)ethyl]-4-[4-(trifluoromethyl)phenyl]benzamide] | 0.01 to 0.1 | – |
| CN(CCNC(=O)C1CCN(c2ccc(OC(F)(F)F)cc2)CC1)[C@H]1CCN(Cc2ccccc2)C1 [9-17, N-(2-{[(3S)-1-benzylpyrrolidin-3-yl](methyl)amino}ethyl)-1-[4-(trifluoromethoxy)phenyl]piperidine-4-carboxamide] | 0.01 to 0.1 | – |
